Consider one compound from patent US20060281807A1, “Quassinoid compositions for the treatment of cancer and other proliferative diseases” (Tapestry Pharmaceuticals, Inc., priority 2005, published 2006).

One data set relates to SK-N-AS. Description: MTT cytotoxicity assay (% kill), SK-N-AS. Format: cell-based, human. Particulars: 1 h exposure, MTT after five days. The gist of the method:
(§1)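 Cells grown in 10% FBS Eagles MEM at 37 °C, 5% CO2, sextuplicate wells, exposed to compound at 0.1 or 1.0 μg/mL for 1 h or 24 h. After rinsing, they were cultured 5 more days. Viable cells then measured by MTT, expressed as % kill.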
A general note: Formazan colour is commonly taken as a measure of viable cells.

A further data set concerns LS-174T. Nature of the data set: MTT cytotoxicity assay (% kill), LS-174T. In kind it is cell-based, human. Particulars: 1 h exposure, MTT after five days. The method, boiled down: as §1
For a further data set, the system named is WiDr. Description: MTT cytotoxicity assay (% kill), WiDr. Format: cell-based, human. Particulars: 0.1 μg/mL, 1 h exposure. As for the experimental part:
(§2) The following human tumor cell lines were obtained and cultured in sextuplicate microwells at 37° C. and 5% CO2 in humidified air and in 10% FBS in Eagles MEM: SK—N—FI, SK—N-AS, LS-174T, WiDr, HuTu-80, MCF7, NCI-AR, MES-Sar, and PL-45. Cells from each cell line were separately treated with an amount of one of the compounds of Formula I, II, or III (see Table 1). Cells were exposed to each compound (0.1 μg/mL or 1.0 μg/mL) for one hour or 24 hours, rinsed with drug-free media, and incubated for an additional five days. The number of viable cells after five days was measured using an MTT (3-(4,5-dimethylthiazol-2-yl)-2,5-diphenyltetrazolium bromide) assay (see, e.g., Mosmann, J. Immunol. Methods, 65(1-2), 55-63 (1983)).
(§3) The cytotoxicity of each drug was determined and expressed as the percent of cells killed (“% kill”).

The next data set concerns HuTu-80. Description: MTT cytotoxicity assay (% kill), HuTu-80. In kind it is cell-based, human. The note with it: 1 h exposure. How it is done:
as §2, §3

Another data set relates to MCF7. Description: MTT cytotoxicity assay (% kill), MCF7. Format: cell-based, human. The note with it: 1 h exposure. How it is done: as §2, §3
Another data set relates to NCI-AR. Description: MTT cytotoxicity assay (% kill), NCI-AR. Format: cell-based, human. Particulars: 1 h exposure. As for the experimental part:
as §2, §3

Another data set relates to MES-Sar. Nature of the data set: MTT cytotoxicity assay (% kill), MES-Sar. Particulars: 1 h exposure. In kind it is cell-based, human. How it is done: as §2, §3
The test system of another data set is PL-45. Nature of the data set: MTT cytotoxicity assay (% kill), PL-45. The note with it: 1 h exposure. Format: cell-based, human. How it is done: as §2, §3
The next data set relates to tumor cells. Nature of the data set: Inhibition of tumor growth in vivo (% T/C) in SCID mice. As for the experimental part:
SCID mice weighing more than 17 grams were supplied food and water ad libidum. The animals were pooled, implanted subcutaneously with tumor cells, and pooled again before distribution to treatment and control groups. Treatment was started when the tumors were palpable (i.e., 10 days after inoculation). Mice received one of four doses (i.e., 1.6, 1.2, 0.8, and 0.4 mg/mouse) of the inventive compound. Each dose was administered intravenously via the tail vein once per day for 5 days. Mice were killed when their tumors reached 1500 mm^3.
Tumor weights were estimated from two-dimensional caliper measurements performed twice a week according to the following formula: Tumor Weight (mg)=(a×b^2)/2 in which a and b are the tumor length and width, respectively, in millimeters.
Therapeutic efficacy was measured as the % T/C value (T=treated, C=control), which was determined each time a tumor measurement was made. The median tumor weight of the treatment and control groups was determined. A % T/C value equal to or less than 50% indicates antitumor activity. A % T/C value of <10% indicates highly significant antitumor activity, and is the level used by the National Cancer Institute (NCI) to justify a clinical trial if toxicity, formulation and other requirements are met. A weight loss of greater than 20% (mean of group) or greater than 20% drug deaths indicates an excessively toxic dose.

In the case of `COC(=O)[C@@]12OC[C@@]34C1[C@@H](OC(=O)CC(O)(C(C)C)C(C)C)C(=O)O[C@@H]3C[C@H]1C(C)=C(O)C(=O)C[C@]1(C)[C@H]4[C@@H](O)[C@@H]2O` (stereo partly drawn) [15-O-(3′-hydroxy-3′-isopropyl-4′-methylpentanoyl)bruceolide], the figures for the “% Kill, SK-N-AS” value in the data set with SK-N-AS (0.1 μg/mL) and in the data set on SK-N-AS (1.0 μg/mL) were 0% and 3%, respectively. In addition, the “% Kill, LS-174T” value in the data set with LS-174T (0.1 μg/mL) is reported as 0%; with LS-174T (1.0 μg/mL), 13%. In the data set on WiDr, the “% kill, WiDr” value is 0%. Besides, the entries for the “% kill, HuTu-80” value in the data set on HuTu-80 (0.1 μg/mL) and with HuTu-80 (1.0 μg/mL) were 0% and 7%, respectively. Moreover, the “% kill, MCF7” value in the data set on MCF7 (0.1 μg/mL) worked out at 12%; in the data set with MCF7 (1.0 μg/mL), 31%. Further, the “% kill, NCI-AR” value in the data set on NCI-AR (0.1 μg/mL) and with NCI-AR (1.0 μg/mL) was 0% each time. Moreover, the “% kill, MES Sar” value with MES-Sar (0.1 μg/mL) and with MES-Sar (1.0 μg/mL) was 0% each time. The “% kill, PL-45” value in the data set with PL-45 (0.1 μg/mL) and in the data set with PL-45 (1.0 μg/mL) was 0% in each case. For the same compound, the “% T/C” value with tumor cells (0.4 mg/mouse intravenously once per day for 5 days (lower dose group)) stood at 31%; with tumor cells (0.8 mg/mouse intravenously once per day for 5 days (higher dose group of the surviving two)) it was 16%. Further, in the data set with tumor cells (highest two doses (1.6 and 1.2 mg/mouse) intravenously once per day for 5 days), the mortality result is on record as “died”.
